Measurements taken from patent US8927024B1, “Antimicrobial polyanhydride nanoparticles” (priority 2009, dated 2015).
Where “and” joins values, the source holds several entries; their conditions need not be identical. Equal entries are not always repeated. Where two headings read alike, the source gives them in different places.

Key:
Brucella melitensis 16M = conditions: in vivo; cited from earlier work
[1] = tested on: Mycobacterium avium subsp. paratuberculosis (MAP); assay: Viability of MAP in broth culture (% live MAP by flow); conditions: for viability at 1.25 µg/mL / viability at 10 µg/mL: Mycobacterium avium, read-out: % live MAP (viability of MAP in broth)

Compound	Log CFU/spleen (Brucella melitensis 16M)	Reduction (log) (Brucella melitensis 16M)	Spleen wt (Brucella melitensis 16M)	antimicrobial activity in MAP cultures ([1]; FIG. 15, 10 μg/mL amikacin)	viability at 1.25 µg/mL ([1]; 24 h)	viability at 10 µg/mL ([1]; 24 h)	viability at 1.25 µg/mL ([1]; 48 h)	viability at 10 µg/mL ([1]; 48 h)
gentamicin [Free GEN]	6.77 ± 0.12 Log CFU/spleen	0.08 log and 0.04 log	0.86 ± 0.05 g and 0.83 ± 0.26 g	–	–	–	–	–
NCC[C@H](O)C(=O)N[C@@H]1C[C@H](N)[C@@H](O[C@H]2O[C@H](CN)[C@@H](O)[C@H](O)[C@H]2O)[C@H](O)[C@H]1O[C@H]1O[C@H](CO)[C@@H](O)[C@H](N)[C@H]1O [Soluble, amikacin]	–	–	–	minimal antimicrobial activity	93.8%	90.1%	88.4%	84.8%
